For data set [1], the system named is IL-1β cytokine output from THP-1s. Nature of the data set: THP-1 AlphaLISA IL-1β cytokine assay. It is filed as cell-based, human. As to conditions: Homo sapiens, THP-1, PMA-differentiated THP-1 cells, LPS 24 hr then Nigericin 1 hour; read-out: IL-1β (IC50). In a few lines: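 PMA-differentiated (72 h) THP-1 cells pretreated 30 min with compound, LPS-stimulated 24 h, then nigericin 1 h at 37 °C. Supernatant IL-1β and IL-6 by AlphaLISA; % inhibition normalised to ±LPS controls, IC50 from concentration-response curves.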
For orientation: In Alpha technology, singlet oxygen from a donor bead excites a nearby acceptor bead.

The test system of data set [2] is IL-6 cytokine output from THP-1s. Nature of the data set: THP-1 AlphaLISA IL-6 cytokine assay. In kind it is cell-based, human. As to conditions: Homo sapiens; PMA-differentiated THP-1 cells, LPS 24 hr then Nigericin 1 hour. As for the experimental part:
Measuring Inhibitory Effects on IL-1β and IL-6 Cytokine Output from THP-1s
The cytokine inhibition profiles of compounds of formula (IW-1) were determined in a differentiated THP-1 cell assay. All assays were performed in RPMI-1640 growth medium (Gibco), supplemented with 10% fetal bovine serum (FBS; Gibco), 1% penicillin-streptomycin and 1% sodium pyruvate unless specified otherwise. The IL-1β and IL-6 cytokine inhibition assays were each run in a background of differentiated THP-1 cells as described below. All reagents described were from Sigma-Aldrich unless specified otherwise. Compounds were prepared as 10 mM DMSO stocks.
THP-1 cells were expanded as a suspension up to 80% confluence in appropriate growth medium. Cells were harvested, suspended, and treated with an appropriate concentration of phorbol 12-myristate 13-acetate (PMA) over a 72 hr period (37° C./5% CO2).
Following 72 hrs of THP-1 cell incubation, cellular medium was removed and replaced with fresh growth media containing 1% of FBS. Working concentrations of compounds were prepared separately in 10% FBS treated growth medium and pre-incubated with the cells for 30 minutes (37° C./5% CO2). Following the 30 minute compound pre-incubation, THP-1s were treated with an appropriate concentration of LPS and the THP-1s were subsequently incubated for a 24 hr period (37° C./5% CO2). An appropriate final concentration of Nigericin was then dispensed into the THP-1 plates and incubated for 1 hour (37° C./5% CO2) before THP-1 supernatants were harvested and collected in separate polypropylene 96-well holding plates.
Reagents from each of the IL-1β and IL-6 commercial kits (Perkin Elmer) were prepared and run according to the manufacturer's instructions. Subsequently, fluorescence signal detection in a microplate reader was measured (EnVision® Multilabel Reader, Perkin Elmer).
Percentage inhibition was calculated per cytokine by normalising the sample data to the high and low controls used within each plate (+/−LPS respectively). Percentage inhibition was then plotted against compound concentration and the 50% inhibitory concentration (IC50) was determined from the resultant concentration-response curve.

Data set [3] deals with NRF2. The data set is described as follows: NRF2 +/-GSH activation assay (DiscoverX PathHunter NRF2 translocation kit, U2OS cells). In kind it is cell-based. As to conditions: Homo sapiens, GSH condition not stated in Table 5; for Emax: U2OS, normalised to dimethyl fumarate 'High' control, read-out: NRF2 activation Emax; for EC50: U2OS PathHunter cells, 6 hours, read-out: NRF2 activation EC50. As for the experimental part: Measuring Compound Activation Effects on the Anti-Inflammatory Transcription Factor NRF2 in DiscoverX PathHunter NRF2 Translocation Kit
Potency and efficacy of compounds of formula (IW-1) against the target of interest to activate NRF2 (nuclear factor erythroid 2-related factor 2) were determined using the PathHunter NRF2 translocation kit (DiscoverX). The NRF2 translocation assay was run using an engineered recombinant cell line, utilising enzyme fragment complementation to determine activation of the Keap1-NRF2 protein complex and subsequent translocation of NRF2 into the nucleus. Enzyme activity was quantified using a chemiluminescent substrate consumed following the formation of a functional enzyme upon PK-tagged NRF2 translocation into the nucleus.
The assay was run under either +/−GSH (glutathione) conditions to determine the attenuating activities of GSH against target compounds.
Additionally, a defined concentration of dimethyl fumarate was used as the ‘High’ control to normalise test compound activation responses to.
U2OS PathHunter eXpress cells were thawed from frozen prior to plating. Following plating, U2OS cells were incubated for 24 hrs (37° C./5% CO2) in commercial kit provided cell medium.
Following 24 hrs of U2OS incubation, cells were directly treated with an appropriate final concentration of compound, for −GSH conditions, or for +GSH conditions, an intermediate plate containing 6× working concentrations of compound stocks was prepared in a 6 mM working concentration of GSH solution (solubilised in sterile PBS). Following a 30 minute compound-GSH pre-incubation (37° C./5% CO2) for +GSH treatment, plated U2OS cells were incubated with an appropriate final concentration of compound and GSH.
Following compound (+/−GSH) treatment, the U2OS plates were incubated for a further 6 hours (37° C./5% CO2) before detection reagent from the PathHunter NRF2 commercial kit was prepared and added to test plates according to the manufacturer's instructions. Subsequently, the luminescence signal detection in a microplate reader was measured (PHERAstar®, BMG Labtech).
Percentage activation was calculated by normalising the sample data to the high and low controls used within each plate (+/−DMF). Percentage activation/response was then plotted against compound concentration and the 50% activation concentration (EC50) was determined from the plotted concentration-response curve.

Data set [4] is described as follows: Mouse pharmacokinetic study, intravenous dosing. It is filed as in vivo. As to conditions: male, C57BL/6, mouse, iv, plasma, 10 mg/kg i.v., read-out: Parent compound concentration following intravenous administration. As for the experimental part:
Pharmacokinetic studies were carried out in 6-8-week-old male C57BL/6 mice having free access to food and water. Intravenous dosing was conducted at 10 mg/kg (5 mL/kg; vehicle: 10% DMSO-90% (25% HP-13-CD in water)) via tail vein injection, with sampling at 3 min, 8 min, 15 min, 30 min, 1, 2, 4, 6 and 8 hours, i.e., 9 time points in total (N=3/time point), using semi-serial bleeding for plasma. Oral compound administration, via gavage, was carried out at 100 mg/kg (10 mL/kg; vehicle: 5% DMSO-95% (0.5% HPMC+0.1% Tween 80 in water)), with sampling at 5 min, 15 min, 30 min, 1, 2, 4, 6, 8 and 24 hours, i.e., 9 time points in total (N=3/time point), using semi-serial bleeding for plasma.
For both intravenous and oral routes, the mice were restrained manually at the designated time points, with ca. 110 μL of blood being taken into K2EDTA tubes via the facial vein. Blood samples were put on ice and centrifuged to obtain plasma samples from which the concentration at each time point was measured by LC-MS/MS.

SMILES strings stand for the structures.

With `C=C(CC(=O)OCCCCCCCC)C(=O)OC(C)C(=O)N1CCC[C@H]1C(=O)O` (stereo partly drawn) [Example 101, (2-((2-methylene-4-(octyloxy)-4-oxobutanoyl)oxy)propanoyl)-L-proline], the IC50 in data set [1] was determined as 15.2 µM. Moreover, the IC50 in data set [2] amounted to 4.7 µM. Further, in data set [3], the maximum response (Emax) is 186% and the EC50 is 37.9 µM.
As to `C=C(CC(=O)OCCCCCCCC)C(=O)OCC(=O)N1CCC[C@H]1C(=O)O` [Example 99, (2-((2-methylene-4-(octyloxy)-4-oxobutanoyl)oxy)acetyl)-L-proline], the IC50 was found to be 1.9 µM in data set [1] and 2.5 µM in data set [2]. In addition, the Emax in data set [3] was 227%. Further, the EC50 in data set [3] is 37.6 µM.
On the same counts, the results for `C=C(CC(=O)OC1CCCCCCC1)C(=O)OC1CCN(S(C)(=O)=O)CC1` [Example 69, 4-cyclooctyl 1-(1-(methylsulfonyl)piperidin-4-yl) 2-methylenesuccinate] are 1.7 µM, 2.2 µM, 111% and 14.7 µM.
For the compound `C=C(CC(=O)OCCCCCCCC)C(=O)OC(C)C(=O)NCC(=O)O` (centres unmarked) [Example 102, (2-((2-methylene-4-(octyloxy)-4-oxobutanoyl)oxy)propanoyl)glycine], in data set [1], the half-inhibitory concentration (IC50) was found to be 1.5 µM. Moreover, the half-maximal inhibitory concentration (IC50) in data set [2] amounted to 1.1 µM. In data set [3], the Emax was 191% and the EC50 worked out at 6.5 µM.
For the compound `C=C(CC(=O)OC1CCCCCCC1)C(=O)OC1CS(=O)(=O)C1` [Example 54, 4-cyclooctyl 1-(1,1-dioxidothietan-3-yl) 2-methylenesuccinate], the IC50 in data set [1] came to 3.9 µM. In addition, the midpoint of inhibition in data set [2], the IC50, lay at 1.5 µM. Moreover, in data set [3], the maximal response (Emax) came to 105% and the EC50 worked out at 2.8 µM.
For the compound `C=C(CC(=O)OCCCCCC)C(=O)OCC(=O)NS(=O)(=O)N(C)C` [Example 118, 1-(2-((N,N-dimethylsulfamoyl)amino)-2-oxoethyl) 4-hexyl 2-methylenesuccinate], the figures for the concentration for half-maximal inhibition (IC50) in data set [1] and in data set [2] were 16.2 µM and 14 µM, respectively. In addition, the concentration at 0.05 h in data set [4] (time 0.05 h) stood at 3050 ng/mL. Besides, the concentration at 0.133 h in data set [4] (time 0.133 h) is 161 ng/mL. Further, in data set [4] (time 0.25 h), the concentration at 0.25 h was found to be 8 ng/mL. Besides, in data set [4] (time 0.5 h), the concentration at 0.5 h stood at 2.4 ng/mL. The concentration at 1 h in data set [4] (time 1 h) is below 0.8 ng/mL. Also, the concentration at 2 h in data set [4] (time 2 h) is below 0.8 ng/mL. Further, in data set [4] (time 4 h), the concentration at 4 h was below 0.8 ng/mL. The concentration at 6 h in data set [4] (time 6 h) was below 0.8 ng/mL. In addition, in data set [4] (time 8 h), the concentration at 8 h is below 0.8 ng/mL.
Regarding `C=C(CC(=O)OCCCCCCCC)C(=O)OCCN1CCS(=O)(=O)CC1` [Example 52, 1-(2-(1,1-dioxidothiomorpholino)ethyl) 4-octyl 2-methylenesuccinate], the IC50 amounted to 8.5 µM in data set [1] and 2.5 µM in data set [2].
As to `C=C(CC(=O)O[C@H](C)CCCCCC)C(=O)OC1CN(C(C)=O)C1` [Example 58, (R)-1-(1-acetylazetidin-3-yl) 4-(octan-2-yl) 2-methylenesuccinate], the half-maximal inhibitory concentration (IC50) in data set [1] was 6.5 µM; in data set [2] it was 3.8 µM.
Consider `C=C(CC(=O)OC1CCCCCCC1)C(=O)OCCN1CCCC1=O` [Example 71, 4-cyclooctyl 1-(2-(2-oxopyrrolidin-1-yl)ethyl) 2-methylenesuccinate], for which the results for the 50% inhibitory concentration (IC50) in data set [1] and in data set [2] were 8.7 µM and 9.6 µM, respectively.
The like results for `C=C(CC(=O)OCCCCCCCC)C(=O)OC(C)C(=O)O` (centres unmarked) [Example 79, 2-((2-methylene-4-(octyloxy)-4-oxobutanoyl)oxy)propanoic acid] were, in that order, 11.9 µM and 13.5 µM.
Regarding `C=C(CC(=O)OCCCCCCCC)C(=O)OCC(C)(C)C#N` [Example 30, 1-(2-cyano-2-methylpropyl) 4-octyl 2-methylenesuccinate], the IC50 in data set [1] was 11.3 µM; in data set [2] it was 4.8 µM.
On the same counts, the results for `C=C(CC(=O)OCCCCCCCC)C(=O)OCC(=O)OC(C)(C)C` [Example 48, 1-(2-(tert-butoxy)-2-oxoethyl) 4-octyl 2-methylenesuccinate] are 10.1 µM and 5.1 µM.
The like results for `C=C(CC(=O)OC1CCCCC1)C(=O)OC(C)C(=O)O` (centres unmarked) [Example 111, 2-((4-(cyclohexyloxy)-2-methylene-4-oxobutanoyl)oxy)propanoic acid] were, in that order, 100 µM and 70.9 µM.
On to `C=C(CC(=O)OCCCCCCCC)C(=O)OC(C)OC(C)=O` (centres unmarked) [Example 46, 1-(1-acetoxyethyl) 4-octyl 2-methylenesuccinate], for which the half-maximal inhibitory concentration (IC50) in data set [1] was 6.7 µM; in data set [2] it was 3 µM.
On the same counts, the results for `C=C(CC(=O)OCCCCCCCC)C(=O)OC1CC(F)(F)C1` [Example 185, 1-(3,3-difluorocyclobutyl) 4-octyl 2-methylenesuccinate] are 21.6 µM and 8.8 µM.
The like results for `C=C(CC(=O)O[C@@H](C)CCCCCC)C(=O)OC1CS(=O)(=O)C1` [Example 67, (S)-1-(1,1-dioxidothietan-3-yl) 4-(octan-2-yl) 2-methylenesuccinate] were, in that order, 5.7 µM and 4.8 µM.
On the same counts, the results for `C=C(CC(=O)OCC(C)(C)C)C(=O)OCCC(=O)O` [Example 83, 3-((2-methylene-4-(neopentyloxy)-4-oxobutanoyl)oxy)propanoic acid] are 34.2 µM and 96.9 µM.

As usually defined, the IC50 is the concentration that inhibits the measured activity by half. As usually defined, the Emax is the size of the effect at its maximum, as opposed to the concentration needed. The EC50 is the concentration needed to bring the measured effect to its halfway point.
